Laboratory results as given in ChEMBL document CHEMBL4145579, “Plasmodial Kinase Inhibitors: License to Cure?” (J Med Chem, 2018).
pEC50, pIC50, pKi: −log10 of the molar value. Each block holds one compound with its values, some of them ahead of it.

Key:
Plasmodium falciparum [1] = experiment: Inhibition of Plasmodium falciparum NF54 exflagellation measured on day 15 post parasite growth; format: functional, organism-based; details: NF54, 360 h
Plasmodium falciparum [2] = experiment: Antiplasmodial activity against Plasmodium falciparum NF54; format: functional, organism-based
[3] = target: T1, Calcium-dependent protein kinase 1 (Plasmodium falciparum, UniProt P62344); experiment: Inhibition of Plasmodium falciparum recombinant CDPK1 expressed in Escherichia coli expression system after 1 hr in presence of [gamma33P]ATP by scintillation proximity assay
T1 sequence (P62344 whole entry): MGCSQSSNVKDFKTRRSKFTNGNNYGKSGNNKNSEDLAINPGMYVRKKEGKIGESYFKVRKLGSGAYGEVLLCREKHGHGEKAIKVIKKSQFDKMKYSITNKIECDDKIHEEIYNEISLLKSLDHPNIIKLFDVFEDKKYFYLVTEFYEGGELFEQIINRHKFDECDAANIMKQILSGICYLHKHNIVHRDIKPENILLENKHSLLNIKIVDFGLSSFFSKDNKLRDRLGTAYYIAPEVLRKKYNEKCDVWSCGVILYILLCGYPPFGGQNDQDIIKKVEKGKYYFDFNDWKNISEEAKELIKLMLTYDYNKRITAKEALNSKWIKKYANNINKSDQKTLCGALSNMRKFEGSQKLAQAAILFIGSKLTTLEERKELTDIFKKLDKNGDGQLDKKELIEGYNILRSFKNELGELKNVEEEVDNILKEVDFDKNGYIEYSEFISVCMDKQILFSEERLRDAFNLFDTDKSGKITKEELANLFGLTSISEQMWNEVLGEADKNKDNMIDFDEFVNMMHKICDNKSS

Plasmodium falciparum [4] = experiment: Antiplasmodial activity against mature gametocytes of Plasmodium falciparum 3D7 […]; format: functional, organism-based
[5] = Inhibition of Plasmodium falciparum PKG
[6] = Inhibition of Plasmodium falciparum 3D7 6xHis-tagged PI3K helica domain expressed in Escherichia coli by Western blot analysis
Plasmodium berghei [7] = experiment: Antiplasmodial activity Plasmodium berghei infected in ip dosed mouse; format: functional
[8] = Inhibition of recombinant Plasmodium vivax PI4K
Plasmodium berghei [9] = experiment: Antiplasmodial activity Plasmodium berghei infected in po dosed mouse; format: functional
Plasmodium falciparum [10] = experiment: Antiplasmodial activity drug-sensitive Plasmodium falciparum 3D7 infected in po dosed humanized SCID mouse assessed as decrease in blood parasitemia administered once daily for 4 days measure on day 7 by flow cytometric method; format: functional
[11] = target: T1, Calcium-dependent protein kinase 1; experiment: Inhibition of Plasmodium falciparum recombinant His-tagged CDPK1 expressed in Escherichia coli BL21(DE3) after 1 hr in presence of [gamma33P]ATP by scintillation proximity assay
[12] = target: Cyclin-dependent kinase 5/CDK5 activator 1 (Homo sapiens) (UniProt Q00535+Q15078); experiment: Inhibition of recombinant human N-terminal His6-tagged full length CDK5/recombinant human N-terminal GST-tagged full length p25 at 10 uM; format: protein-complex assay
Cyclin-dependent kinase 5/CDK5 activator 1 (Homo sapiens), sequence (Q00535 whole entry): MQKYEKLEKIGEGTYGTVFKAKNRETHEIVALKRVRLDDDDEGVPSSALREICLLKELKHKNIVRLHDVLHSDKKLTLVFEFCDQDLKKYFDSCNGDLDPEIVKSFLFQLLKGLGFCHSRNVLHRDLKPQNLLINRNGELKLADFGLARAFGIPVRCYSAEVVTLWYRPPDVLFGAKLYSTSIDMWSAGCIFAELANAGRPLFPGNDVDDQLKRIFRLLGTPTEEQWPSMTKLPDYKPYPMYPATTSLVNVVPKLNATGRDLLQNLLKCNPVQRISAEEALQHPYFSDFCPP
Cyclin-dependent kinase 5/CDK5 activator 1 (Homo sapiens), sequence (Q15078 99-307 partner limits assumed): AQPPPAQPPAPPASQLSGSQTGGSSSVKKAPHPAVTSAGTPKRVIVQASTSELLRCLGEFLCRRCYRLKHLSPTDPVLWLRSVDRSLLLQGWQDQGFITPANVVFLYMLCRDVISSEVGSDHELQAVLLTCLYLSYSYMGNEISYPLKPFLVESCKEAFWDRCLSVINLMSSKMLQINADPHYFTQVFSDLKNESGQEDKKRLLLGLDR

Plasmodium falciparum [13] = experiment: Antiplasmodial activity against chloroquine-sensitive Plasmodium falciparum D6 infected in human red blood cells preincubated for 24 hrs followed by [3H]-hypoxanthine addition measured after 18 hrs by scintillation counting; format: functional, organism-based
Plasmodium falciparum [14] = experiment: Antiplasmodial activity against mature gametocytes of Plasmodium falciparum NF54 […] by standard membrane feeding assay; format: functional, organism-based
Plasmodium falciparum [15] = experiment: Antiplasmodial activity against Plasmodium falciparum infected in CD1 mouse at 100 mg/kg, po bid for 4 days; format: functional
[16] = Inhibition of Plasmodium falciparum recombinant expressed in Toxoplasma gondii after 60 mins in presence of [33P]ATP by scintillation counting
Plasmodium falciparum [17] = experiment: Antiplasmodial activity against Plasmodium falciparum NF54 gametocyte form infected in human erythrocytes by scintillation counting-based [3H]-hypoxanthine incorporation assay; format: functional, organism-based
Plasmodium falciparum [18] = experiment: Antiplasmodial activity against chloroquine-sensitive Plasmodium falciparum Dd2 gametocyte form infected in human erythrocytes by scintillation counting-based [3H]-hypoxanthine incorporation assay; format: functional, organism-based
[19] = target: T2, Calcium-dependent protein kinase 4 (Plasmodium falciparum (isolate 3D7), UniProt Q8IBS5); experiment: Inhibition of Plasmodium falciparum His-tagged CDPK4 expressed in Escherichia coli BL21(DE3) using […] as substrate after 10 mins in presence of ATP
T2 sequence (Q8IBS5 whole entry): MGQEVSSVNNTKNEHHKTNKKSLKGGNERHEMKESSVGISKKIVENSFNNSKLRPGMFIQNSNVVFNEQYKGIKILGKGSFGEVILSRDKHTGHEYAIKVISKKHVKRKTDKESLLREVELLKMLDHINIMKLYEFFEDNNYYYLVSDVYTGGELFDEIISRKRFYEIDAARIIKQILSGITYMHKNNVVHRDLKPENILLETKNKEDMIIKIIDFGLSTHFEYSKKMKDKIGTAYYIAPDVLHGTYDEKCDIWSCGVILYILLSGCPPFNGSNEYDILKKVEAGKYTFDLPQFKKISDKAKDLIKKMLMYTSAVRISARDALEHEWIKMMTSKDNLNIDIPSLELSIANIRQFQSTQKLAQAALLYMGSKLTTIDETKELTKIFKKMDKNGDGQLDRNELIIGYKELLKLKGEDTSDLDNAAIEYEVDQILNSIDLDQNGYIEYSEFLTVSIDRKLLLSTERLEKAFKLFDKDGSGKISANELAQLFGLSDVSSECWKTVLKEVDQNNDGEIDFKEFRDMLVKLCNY

Plasmodium falciparum [20] = experiment: Antiplasmodial activity against Plasmodium falciparum FCB infected in human erythrocytes after 30 mins by FACS analysis; format: functional, organism-based; details: 0.5 h
[21] = target: Mitogen-activated protein kinase 14 (Homo sapiens) (UniProt Q16539); experiment: Inhibition of recombinant human N-terminal GST-tagged full length SAPK2alpha expressed in Escherichia coli at 10 uM
Mitogen-activated protein kinase 14 (Homo sapiens), sequence (Q16539 whole entry, the tested form may be a part): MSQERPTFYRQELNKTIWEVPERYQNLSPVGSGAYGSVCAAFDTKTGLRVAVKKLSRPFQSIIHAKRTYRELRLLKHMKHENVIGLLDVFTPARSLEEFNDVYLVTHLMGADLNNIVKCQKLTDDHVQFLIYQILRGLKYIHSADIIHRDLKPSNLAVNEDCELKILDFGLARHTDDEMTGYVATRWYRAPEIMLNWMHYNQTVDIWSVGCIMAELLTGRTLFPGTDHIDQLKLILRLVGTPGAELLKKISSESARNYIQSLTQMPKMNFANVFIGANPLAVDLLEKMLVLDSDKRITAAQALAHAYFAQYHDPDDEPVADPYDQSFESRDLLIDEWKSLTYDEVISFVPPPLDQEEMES

[22] = target: Fibroblast growth factor receptor 1 (Homo sapiens) (UniProt P11362); experiment: Inhibition of recombinant human N-terminal GST-tagged FGFR1 (456 to 765 residues) expressed in Escherichia coli at 10 uM
Fibroblast growth factor receptor 1 (Homo sapiens), sequence (P11362 22-822 limits assumed): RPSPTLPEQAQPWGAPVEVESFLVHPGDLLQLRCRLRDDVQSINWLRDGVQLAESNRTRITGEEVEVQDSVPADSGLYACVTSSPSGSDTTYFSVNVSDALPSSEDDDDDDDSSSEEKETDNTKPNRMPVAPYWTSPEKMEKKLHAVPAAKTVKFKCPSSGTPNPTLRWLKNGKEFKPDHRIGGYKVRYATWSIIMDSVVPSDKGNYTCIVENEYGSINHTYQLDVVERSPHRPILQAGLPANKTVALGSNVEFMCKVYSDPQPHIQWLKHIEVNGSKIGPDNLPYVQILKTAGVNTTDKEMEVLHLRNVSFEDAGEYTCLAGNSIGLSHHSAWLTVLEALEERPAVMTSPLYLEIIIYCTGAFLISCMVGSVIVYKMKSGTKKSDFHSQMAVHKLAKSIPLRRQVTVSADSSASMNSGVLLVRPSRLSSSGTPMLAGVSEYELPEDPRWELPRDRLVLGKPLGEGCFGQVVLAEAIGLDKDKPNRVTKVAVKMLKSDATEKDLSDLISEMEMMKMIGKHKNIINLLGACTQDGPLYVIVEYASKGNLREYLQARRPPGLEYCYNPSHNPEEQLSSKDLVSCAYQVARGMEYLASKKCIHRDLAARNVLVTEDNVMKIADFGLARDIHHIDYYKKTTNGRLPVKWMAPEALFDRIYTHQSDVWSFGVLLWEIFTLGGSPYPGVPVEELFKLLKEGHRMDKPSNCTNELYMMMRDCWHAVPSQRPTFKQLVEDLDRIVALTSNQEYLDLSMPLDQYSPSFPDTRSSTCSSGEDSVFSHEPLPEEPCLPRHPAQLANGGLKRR

SMILES: CCOc1ccc2cc(-c3nn(CC4CCNCC4)c4ncnc(N)c34)ccc2c1
pEC50 (Plasmodium falciparum [1]): 7.46 | pEC50 (Plasmodium falciparum [2]): 5.70

pIC50 [3]: 7.77 to 7.89
SMILES: N[C@H]1CC[C@H](Nc2nc(Nc3ccc(C(=O)N4CCCCC4)cc3)c3ncn(-c4cccc(F)c4)c3n2)CC1 [PURFALCAMINE]

pIC50 (Plasmodium falciparum [4]): 6.99 | pIC50 [5]: 9.89
SMILES: CN(C)Cc1ccn2c(-c3ccnc(NCC4CC4)n3)c(-c3cccc(S(C)(=O)=O)c3)nc2c1

SMILES: C[C@H]1[C@@H](O)O[C@@H]2O[C@@]3(C)CC[C@H]4[C@H](C)CC[C@@H]1[C@@]24OO3 [ARTENIMOL]
pIC50 (Plasmodium falciparum [2]): 8.52 | pIC50 [6]: 8.39 | ED50 (Plasmodium berghei [7]): 1.95 mg/kg

pIC50 (Plasmodium falciparum [2]): 5.52 | pIC50 [6]: 4.60
SMILES: O=c1cc(N2CCOCC2)oc2c(-c3ccccc3)cccc12 [LY-294002]

pIC50 [8]: 8.47
SMILES: CS(=O)(=O)c1ccc(-c2cnc(N)c(-c3ccc(C(F)(F)F)nc3)c2)cc1 [MMV-048]
ED90 (Plasmodium berghei [9]): 0.8 mg/kg | ED90 (Plasmodium falciparum [10]): 0.57 mg/kg

pIC50 [8]: 8.00
SMILES: COc1cc(-c2cc(-c3ccc(S(C)(=O)=O)cc3)cnc2N)ccc1O
ED90 (Plasmodium berghei [9]): 43.7 mg/kg

pKi [11]: 7.43 | inhibition [12]: 89%
SMILES: CCCNc1ccc2ncc(-c3cccc(O)c3)n2n1

pIC50 (Plasmodium falciparum [13]): < 4.85
SMILES: O=C1Nc2ccc(Br)cc2/C1=C\C(=O)c1ccc(F)cc1

pEC50 (Plasmodium falciparum [2]): 5.10
SMILES: CCOc1ccc2cc(-c3nn(CC4CCN(C)CC4)c4ncnc(N)c34)ccc2c1
pEC50 (Plasmodium falciparum [1]): 7.33

SMILES: Cc1cn2c(-c3ccnc(NCC4CC4)n3)c(-c3ccc(F)c(NS(C)(=O)=O)c3)nc2cc1CN(C)C
pIC50 (Plasmodium falciparum [4]): 8.68 | pIC50 [5]: 9.80 | pIC50 (Plasmodium falciparum [14]): 7.39 | Activity (Plasmodium falciparum [15]): 99.9%

pIC50 (Plasmodium falciparum [4]): 6.31 | pIC50 (Plasmodium falciparum [17]): 6.31 | pIC50 (Plasmodium falciparum [18]): 5.89
SMILES: CN1CCC(c2cc(-c3ccncc3)c(-c3ccc(F)cc3)[nH]2)CC1
pIC50 [16]: 8.46

pKi [19]: 3.82 | pEC50 (Plasmodium falciparum [20]): 5.72
SMILES: CN1CCN(CCCN2c3ccccc3Sc3ccc(C(F)(F)F)cc32)CC1 [TRIFLUOPERAZINE]

pKi [11]: 6.58 | inhibition [21]: 75% | inhibition [22]: 54%
SMILES: Cc1ccc(C(=O)c2c(N)c(C(N)=O)c3ccccn23)cc1
